What all share (assay type): functional
Test [1] deals with Mycobacterium kansasii. Put plainly: Antimycobacterial activity against Mycobacterium kansasii 6509/96 after 21 days by micromethod. The settings on record: 6509/96, 504 h.
The test system of test [2] is Mycobacterium tuberculosis. The test is described as follows: Antimycobacterial activity against Mycobacterium tuberculosis My 331/88 after 21 days by micromethod. The settings on record: My 331/88, 504 h.
In test [3] the test system is Mycobacterium avium. The test is described as follows: Antimycobacterial activity against Mycobacterium avium My 330/88 after 14 days by micromethod. Conditions: My 330/88, 336 h.
Test [4] deals with Mycobacterium tuberculosis. The test is described as follows: Antimycobacterial activity against Mycobacterium tuberculosis My 331/88 after 14 days by micromethod. Conditions: My 331/88, 336 h.
Test [5] has as its system Mycobacterium kansasii. Put plainly: Antimycobacterial activity against Mycobacterium kansasii My 235/80 after 14 days by micromethod. The settings on record: My 235/80, 336 h.
Test [6] concerns Mycobacterium avium. Put plainly: Antimycobacterial activity against Mycobacterium avium My 330/88 after 21 days by micromethod. Conditions: My 330/88, 504 h.
The subject of test [7] is Mycobacterium kansasii. Put plainly: Antimycobacterial activity against Mycobacterium kansasii My 235/80 after 7 days by micromethod. Conditions: My 235/80, 168 h.
For test [8], the system named is Mycobacterium kansasii. The test is described as follows: Antimycobacterial activity against Mycobacterium kansasii 6509/96 after 7 days by micromethod. Conditions: 6509/96, 168 h.
Test [9] has as its system Mycobacterium kansasii. Put plainly: Antimycobacterial activity against Mycobacterium kansasii My 235/80 after 21 days by micromethod. Conditions: My 235/80, 504 h.
Test [10] concerns Mycobacterium kansasii. Put plainly: Antimycobacterial activity against Mycobacterium kansasii 6509/96 after 14 days by micromethod. The settings on record: 6509/96, 336 h.

The structures appear in SMILES notation. Values after ≈ are worked out from the molar mass of the structure shown.

Take `Cn1nnc([Se]Cc2ccc([N+](=O)[O-])cc2[N+](=O)[O-])n1`: the MIC with Mycobacterium kansasii [1] worked out at 125 µM (≈ 42.9 µg/mL); in [2], 16 µM (≈ 5.49 µg/mL); in the test on Mycobacterium avium [3], 62 µM (≈ 21.3 µg/mL); in [4], 16 µM (≈ 5.49 µg/mL); against Mycobacterium kansasii [5], 125 µM (≈ 42.9 µg/mL); in the test on Mycobacterium avium [6] it was 62 µM (≈ 21.3 µg/mL). Also, the minimum inhibitory concentration (MIC) against Mycobacterium kansasii [7] was determined as 32 µM (≈ 11 µg/mL); against Mycobacterium kansasii [8], 16 µM (≈ 5.49 µg/mL); against Mycobacterium kansasii [9], 125 µM (≈ 42.9 µg/mL); with Mycobacterium kansasii [10] it was 62 µM (≈ 21.3 µg/mL).
Consider `Cn1nnnc1SCc1ccc([N+](=O)[O-])cc1[N+](=O)[O-]`, for which the MIC stood at 500 µM (≈ 148 µg/mL) against Mycobacterium kansasii [1]; 16 µM (≈ 4.74 µg/mL) in [2]; 125 µM (≈ 37 µg/mL) in the test with Mycobacterium avium [3]; 16 µM (≈ 4.74 µg/mL) in test [4]; 500 µM (≈ 148 µg/mL) with Mycobacterium kansasii [5]; 500 µM (≈ 148 µg/mL) against Mycobacterium avium [6]. For the same molecule, the MIC in the test with Mycobacterium kansasii [7] was 125 µM (≈ 37 µg/mL); in the test on Mycobacterium kansasii [8], 125 µM (≈ 37 µg/mL); against Mycobacterium kansasii [9] it was 500 µM (≈ 148 µg/mL); against Mycobacterium kansasii [10] it was 500 µM (≈ 148 µg/mL).
`COc1ccc(C[Se]c2nnn(Cc3cc([N+](=O)[O-])cc([N+](=O)[O-])c3)n2)cc1`: the minimum inhibitory concentration (MIC) against Mycobacterium kansasii [1] was 32 µM (≈ 14.4 µg/mL); in test [2], 8 µM (≈ 3.59 µg/mL); in the test on Mycobacterium avium [3], 16 µM (≈ 7.19 µg/mL); in test [4], 4 µM (≈ 1.8 µg/mL); against Mycobacterium kansasii [5], 16 µM (≈ 7.19 µg/mL); against Mycobacterium avium [6], 32 µM (≈ 14.4 µg/mL). The MIC against Mycobacterium kansasii [7] turned out to be 8 µM (≈ 3.59 µg/mL); against Mycobacterium kansasii [8], 16 µM (≈ 7.19 µg/mL); with Mycobacterium kansasii [9] it was 16 µM (≈ 7.19 µg/mL); in the test with Mycobacterium kansasii [10], 32 µM (≈ 14.4 µg/mL).
As to `Cn1nnnc1[Se]Cc1cc([N+](=O)[O-])cc([N+](=O)[O-])c1`, the minimum inhibitory concentration (MIC) against Mycobacterium kansasii [1] came to 32 µM (≈ 11 µg/mL); in test [2], 8 µM (≈ 2.75 µg/mL); in the test with Mycobacterium avium [3], 500 µM (≈ 172 µg/mL); in [4], 8 µM (≈ 2.75 µg/mL); in the test on Mycobacterium kansasii [5] it was 32 µM (≈ 11 µg/mL); against Mycobacterium avium [6], 500 µM (≈ 172 µg/mL). For the same molecule, the minimal inhibitory concentration (MIC) in the test with Mycobacterium kansasii [7] worked out at 8 µM (≈ 2.75 µg/mL); against Mycobacterium kansasii [8], 16 µM (≈ 5.49 µg/mL); in the test on Mycobacterium kansasii [9], 32 µM (≈ 11 µg/mL); with Mycobacterium kansasii [10], 32 µM (≈ 11 µg/mL).
As to `O=[N+]([O-])c1ccc(CSc2nnn(Cc3ccc([N+](=O)[O-])cc3)n2)cc1`, the MIC (in the test with Mycobacterium kansasii [1]; in test [2]; with Mycobacterium avium [3]; in [4]; against Mycobacterium kansasii [5]; against Mycobacterium avium [6]) was 250 µM (≈ 93.1 µg/mL) each time. In addition, the minimum inhibitory concentration (MIC) against Mycobacterium kansasii [7], against Mycobacterium kansasii [8], with Mycobacterium kansasii [9] and against Mycobacterium kansasii [10] was 250 µM (≈ 93.1 µg/mL) each time.
On to `COc1ccc(C[Se]c2nnnn2Cc2cc([N+](=O)[O-])cc([N+](=O)[O-])c2)cc1`, for which the MIC in the test on Mycobacterium kansasii [1] amounted to 62 µM (≈ 27.9 µg/mL); in [2] it was 16 µM (≈ 7.19 µg/mL); in the test with Mycobacterium avium [3] it was 125 µM (≈ 56.2 µg/mL); in test [4], 16 µM (≈ 7.19 µg/mL); with Mycobacterium kansasii [5] it was 32 µM (≈ 14.4 µg/mL); with Mycobacterium avium [6], 125 µM (≈ 56.2 µg/mL). In addition, the MIC was determined as 16 µM (≈ 7.19 µg/mL) against Mycobacterium kansasii [7], 16 µM (≈ 7.19 µg/mL) against Mycobacterium kansasii [8], 62 µM (≈ 27.9 µg/mL) in the test on Mycobacterium kansasii [9] and 32 µM (≈ 14.4 µg/mL) against Mycobacterium kansasii [10].
`NNC(=O)c1ccncc1` [ISONIAZID]: the minimum inhibitory concentration (MIC) was found to be 4 µM (≈ 0.549 µg/mL) with Mycobacterium kansasii [1]; 1 µM (≈ 0.137 µg/mL) in test [2]; 250 µM (≈ 34.3 µg/mL) against Mycobacterium avium [3]; 0.5 µM (≈ 0.0686 µg/mL) in test [4]; 250 µM (≈ 34.3 µg/mL) with Mycobacterium kansasii [5]; 250 µM (≈ 34.3 µg/mL) with Mycobacterium avium [6]. The MIC against Mycobacterium kansasii [7] came out at 250 µM (≈ 34.3 µg/mL); against Mycobacterium kansasii [8], 4 µM (≈ 0.549 µg/mL); in the test on Mycobacterium kansasii [9] it was 250 µM (≈ 34.3 µg/mL); with Mycobacterium kansasii [10], 4 µM (≈ 0.549 µg/mL).
For `O=[N+]([O-])c1ccc(CSc2nnnn2Cc2ccc([N+](=O)[O-])cc2)cc1`, the minimal inhibitory concentration (MIC) with Mycobacterium kansasii [1] was 250 µM (≈ 93.1 µg/mL); in test [2], 500 µM (≈ 186 µg/mL); against Mycobacterium avium [3] it was 250 µM (≈ 93.1 µg/mL); in test [4], 500 µM (≈ 186 µg/mL); against Mycobacterium kansasii [5], 250 µM (≈ 93.1 µg/mL); in the test on Mycobacterium avium [6] it was 250 µM (≈ 93.1 µg/mL). For the same molecule, the minimal inhibitory concentration (MIC) against Mycobacterium kansasii [7], in the test with Mycobacterium kansasii [8], against Mycobacterium kansasii [9] and against Mycobacterium kansasii [10] was 250 µM (≈ 93.1 µg/mL) throughout.
Regarding `O=[N+]([O-])c1ccc(CSc2nnnn2Cc2ccccc2)c([N+](=O)[O-])c1`, the MIC against Mycobacterium kansasii [1] was 62 µM (≈ 23.1 µg/mL); in [2], 8 µM (≈ 2.98 µg/mL); with Mycobacterium avium [3] it was 250 µM (≈ 93.1 µg/mL); in [4] it was 8 µM (≈ 2.98 µg/mL); against Mycobacterium kansasii [5] it was 32 µM (≈ 11.9 µg/mL); against Mycobacterium avium [6], 250 µM (≈ 93.1 µg/mL). Moreover, the minimum inhibitory concentration (MIC) against Mycobacterium kansasii [7] was determined as 8 µM (≈ 2.98 µg/mL); against Mycobacterium kansasii [8], 16 µM (≈ 5.96 µg/mL); against Mycobacterium kansasii [9], 62 µM (≈ 23.1 µg/mL); in the test with Mycobacterium kansasii [10], 32 µM (≈ 11.9 µg/mL).
`O=[N+]([O-])c1ccc(C[Se]c2nnnn2Cc2ccc([N+](=O)[O-])cc2)cc1`: the MIC in the test with Mycobacterium kansasii [1] was found to be 62 µM (≈ 26 µg/mL); in test [2] it was 125 µM (≈ 52.4 µg/mL); with Mycobacterium avium [3], 250 µM (≈ 105 µg/mL); in test [4] it was 62 µM (≈ 26 µg/mL); against Mycobacterium kansasii [5], 125 µM (≈ 52.4 µg/mL); against Mycobacterium avium [6], 250 µM (≈ 105 µg/mL). Besides, the MIC was 62 µM (≈ 26 µg/mL) with Mycobacterium kansasii [7], 32 µM (≈ 13.4 µg/mL) in the test on Mycobacterium kansasii [8], 125 µM (≈ 52.4 µg/mL) in the test with Mycobacterium kansasii [9] and 62 µM (≈ 26 µg/mL) against Mycobacterium kansasii [10].

These data come from ChEMBL document CHEMBL3621085, “Tetrazole regioisomers in the development of nitro group-containing antitubercular agents” (Medchemcomm, 2015).
